Source: patent publication US5089516A, “1-phenyl-3,5-pyrazolidinedione hydroxystyrene compounds which have tyrosine kinase inhibiting activity” (Kanegafuchi Kagaku Kogyo Kabushiki Kaisha, priority 1987, dated 1992)

Legend:
[1] = tested on: passive cutaneous anaphylaxis (PCA) reaction; experiment: Inhibitory activity against homologous PCA reaction in rats; assay type: in vivo, male Wistar rats; details: Rattus norvegicus, oral, read-out: Inhibition rate (PCA reaction); for inhibition in vivo at 100 mg/kg: 1 hour before antigen
Description: (1) Inhibitory activity against homologous PCA reaction in rats
Antiserum was prepared according to I. Mota [Immunology, 7, 681(1964)]and the PCA reaction was conducted according to Maruyama et al. [Folia Pharmacologica Japonica, 74, 179(1978}].
An ovalbumin solution dissolved in physiological saline (2 mg/ml) was injected intramuscularly into both thighs of male Wistar rats weighing 200 to 260 g in a volume of 0.5 ml/100 g body weight, and pertussis vaccine (Bordetella pertussis, 2×10^10 /ml/ Chiba Serum Institute) was intraperitoneally administered at 1 ml/rat. Twelve days after sensitization, blood was taken from posterior aorta under ether anesthesia and serum was separated and stored at -80° C.
In each group, 4 male Wistar rats weighing 180 to 210 g were used. Back of the rats was shaved and reach 0.05 ml of antiserum diluted 32 times with physiological saline was injected intradermally at four sites on the back. After 48 hours, 1 ml of a mixture of ovalbumin (2 mg/ml) as an antigen and Evans blue (10 mg/ml) in the volume ratio of 1 : 1, which was dissolved in physiological saline was injected intravenously into the tail. Thirty minutes later, the rats were bled to death under ether anesthesia and the back skin of the rats was removed. The blue-dyed area formed by pigment exudation was measured and an inhibition rate (%) was calculated as compared with control according to the following equation. [formula]
A test compound suspended in a 2.5 % aqueous solution of gum arabic containing 0.2 % Tween 80 was administered orally in a volume of 0.5 m:/100 g body weight 1 hour before the injection of antigen. To the control group, only the vehicle was administered. Tranilast which was a positive control compound was administered orally 30 minutes before the injection of antigen.

[2] = tested on: antigen-induced anaphylactic shock death; experiment: Protecting effect against antigen-induced anaphylactic shock death in actively sensitized guinea pigs; assay type: in vivo, male guinea pigs; details: Cavia porcellus, 1.5 h, oral, 30 minutes before antigen inhalation
Description: (2) Protecting effect against antigen-induced anaphylactic shock death in actively sensitized guinea pigs
Anaphylactic shock death caused by inhalation of antigen was observed according to John P. Devlin Pulmonary and Antiallergic Drugs, John Wiley & Sons, (1985)] employing actively sensitized guinea pigs.
Each 100 mg/kg of body weight ovalbumin dissolved in physiological saline was injected into gluteus and into peritoneal cavity of male guinea pigs weighing 250 to 350 g. Three days later, the animals were further injected intraperitoneally with ovalbumin (100 mg/kg body weight) to conduct booster. Those animals were employed for testing 3 to 4 weeks after the sensitization.
In each group, 4 or more actively sensitized guinea pigs were pretreated by subcutaneously injecting pyrilamine (1 mg/kg body weight) 30 minutes before antigen inhalation to suppress histamine-dependent response and propranolol (1 mg/kg body weight) to enhance the response induced by other than histamine 10 minutes before the antigen inhalation.
The animal was placed in a desiccator with a capacity of about […] and 0.5% aqueous solution of ovalbumin in the state of aerosol was inhaled with ultrasonic type nebulizer for five minutes. Anaphylactic shock death was observed and the animals survived for 90 minutes or more after antigen inhalation were estimated to be protected. All the animals of the control group died due to anaphylactic shock. The compounds of the present invention and therapeutic antiasthmatic agent (tranilast, theophylline) were administered orally 30 minutes before the antigen inhalation.

[3] = tested on: Nycobacterium smegmatis ATCC 607; experiment: Antibacterial activity (MIC) against acid-fast bacteria; assay type: cell-based; details: 37° C., 40 to 42 hours
Description: As for acid-fast bacteria, after cultured in glycerol broth medium, there was prepared a bacterial suspension for inoculation containing about 10^6 of the bacteria per 1 ml of the medium. On the other hand, there were prepared some glycerol Czapek agar plating media with adding the test compounds, and thereto the bacterial suspension for inoculation was streaked.

[4] = tested on: antigen-induced airway constriction; experiment: Inhibitory activity against antigen-induced airway constriction in actively sensitized guinea pigs; assay type: in vivo; details: Cavia porcellus, iv, 3 minutes before antigen inhalation, read-out: Inhibition rate (airway constriction)
Description: (3) Inhibitory activity against antigen-induced airway constriction in actively sensitized guinea pigs
That is, the sensitized guinea pigs (5 guinea pigs/group) were provided with artificial respiration by inserting a tracheal cannula under urethane anesthesia (1.5 g/kg body weight, intraperitoneal administration), and then, gallamine at 1 mg/kg body weight was injected intravenously to stop spontaneous respiration of the guinea pigs. Inhalation of 0.5% aqueous solution of ovalbumin was conducted using a nebulizer for 1 minute to increase antigen-induced airway constriction, at the same time, airway pressure was recorded through a transducer. Test compound was administered into jugular vein (i.v.) of the guinea pig 3 minutes before the antigen inhalation or administered orally (p.o.) 2 hours before the antigen inhalation. As a positive control compound, theophylline which was a drug for anti-asthma was used. The effect of the compound was estimated by calculating the maximum value of airway constriction (%) in comparison with the control group, according to the following equation. [formula]

[5] = biological target: T1, epidermal growth factor receptor-tyrosine kinase complex (Homo sapiens, UniProt P00533); experiment: Tyrosine kinase inhibiting activity (A-431 membrane preparation, EGF-stimulated); assay type: biochemical; details: read-out: Tyrosine kinase inhibition rate; for inhibition at 1 µM: 1 μM in the reaction mixture; for inhibition at 10 µM: 10 μM in the reaction mixture
T1 construct: The membrane preparation was employed in the following measurement without solubilization; endogenous in cells; host or cells: A-431 (ATCC CRL1555), membrane preparation, not solubilized
Description: Tyrosine kinase inhibiting activity of the compound of the present invention was measured referring to a method for measuring tyrosine kinase activity by G. Carpenter or by S. Cohen et al. [J. Biol. Chem., 254, 4884(1979); J. Biol. Chem., 257, 1528(1982)].
Cell line A-431 derived from human carcinoma (ATCC CRL1555) was cultured at 37° C. under the condition of 5% CO2 in Dulbecco's modified Eagle's medium (made by NISSUE PHARMACEUTICAL CO., LTD.) containing 10% by volume fetal bovine serum, 50 μg/ml of streptomycin, 50 IU/ml of penicillin G and 50 μg/ml of kanamycin. […] The membrane preparation was employed in the following measurement without solubilization.
A test compound dissolved in dimethylsulfoxide (hereinafter referred to as "DMSO") was added to a mixture of 20 mM of N-2-hydroxyethylpiperazine-N'-2-ethanesulfonic acid buffer (pH 7.4), 1 mM of MnCl2, 7.5 μg of bovine serium albumin and the membrane preparation (10 μg as protein). After incubation at 0° C. for 5 minutes, 100 ng of epidermal growth factor (hereinafter referred to as "EGF") was added thereto and the mixture was further incubated at 0° C. for 15 minutes. [γ-^32 P]ATP (3000 Ci/mmol, 0.1 μCi) was added thereto to make final volume of 70 μl. After incubation at 0° C. for 15 minutes, 50 μl of the reaction mixture was soaked into Whatman 3 MM filter paper (made by Whatman Ltd.) and immediately the reaction was stopped by an aqueous solution of 10% by weight trichloroacetic acid containing 10 mM sodium pyrophosphate. The filter paper was sufficiently washed with the same solution and then washed with ethanol, and dried. Radioactivity present in the filter paper was measured by liquid scintillation counter (A). Also, radioactivity was measured in case of the reaction without EGF (B), the reaction without the test compound (C), and the reaction without both EGF and the test compound (D) as a control.
Tyrosine kinase inhibition rate (%) was calculated by the following equation. [formula]

[6] = biological target: T2, 5-lipoxygenase (Cavia porcellus, UniProt A0A286X958); experiment: 5-Lipoxygenase inhibiting activity (5-HETE formation, cytosol of peritoneal exudate cells); assay type: biochemical, Hartley guinea pigs; details: 10 μM in the reaction mixture; read-out: Inhibition rate (5-lipoxygenase)
T2 construct: The cytosol fraction was used as an enzyme solution; from tissue; host or cells: peritoneal exudate cells of casein-injected Hartley guinea pigs, 105,000×g cytosol
T2 sequence (A0A286X958 1-674): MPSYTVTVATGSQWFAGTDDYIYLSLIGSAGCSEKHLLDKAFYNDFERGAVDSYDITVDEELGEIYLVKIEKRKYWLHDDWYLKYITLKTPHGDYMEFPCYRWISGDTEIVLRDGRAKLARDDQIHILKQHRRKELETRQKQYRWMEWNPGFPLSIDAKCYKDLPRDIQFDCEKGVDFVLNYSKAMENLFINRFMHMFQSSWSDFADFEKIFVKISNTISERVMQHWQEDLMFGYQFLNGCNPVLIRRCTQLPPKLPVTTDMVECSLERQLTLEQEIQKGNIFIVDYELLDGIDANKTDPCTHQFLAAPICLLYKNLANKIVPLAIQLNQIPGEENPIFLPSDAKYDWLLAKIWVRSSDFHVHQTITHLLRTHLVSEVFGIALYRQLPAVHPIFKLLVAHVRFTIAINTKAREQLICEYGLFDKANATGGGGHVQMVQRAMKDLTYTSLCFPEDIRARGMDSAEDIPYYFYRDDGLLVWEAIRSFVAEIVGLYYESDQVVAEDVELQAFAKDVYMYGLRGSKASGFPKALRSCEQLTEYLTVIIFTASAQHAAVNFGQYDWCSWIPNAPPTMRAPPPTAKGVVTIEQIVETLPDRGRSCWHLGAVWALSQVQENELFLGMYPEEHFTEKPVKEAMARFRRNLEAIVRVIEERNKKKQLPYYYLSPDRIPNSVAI
Description: 5-Lipoxygenase inhibiting activity of the compound of the present invention was measured referring to the method for measuring 5-lipoxygenase activity by K. Ochi et al. [Journal of Biological Chemistry (J. Biol. Chem.), 258, 5754(1983)].
Sterilized 2% solution of casein (pH 7) was injected intraperitoneally into Hartley guinea pigs in a volume of 5 ml/100 g body weight. Fifteen hours later, the guinea pigs were killed and peritoneal exudate cells thereof were collected. After the exudate cells were washed with 17 mM Tris--HCl buffer (pH 7.4) containing 0.74% ammonium to remove contaminating erythrocytes in the exudate cells suspension, the cells were washed with buffer A (130 mM NaCl, 1 mM EDTA, 25 mM sodium phosphate, pH 7.4). The washed cells were suspended in buffer B (50 mM sodium phosphate, 1 mM EDTA, 0.1% gelatin, pH 7.4) at 10^8 cells/ml, sonicated and centrifuged at 10,000×g for 20 minutes under the cold atmosphere. The obtained supernatant was further centrifuged at 105,000×g for 60 minutes under the cold atmosphere. The cytosol fraction was used as an enzyme solution.
The enzyme solution was preincubated with the […] in the presence of 1 mM CaCl2, 1 mM reduced gluthathione (GSH) and 2 mM ATP at 30° C. for 5 minutes in 0.2 ml of a reaction mixture and the mixture was further incubated at 30° C. for 5 minutes by adding 20 μM [1-^14 C] arachidonic acid (0.1 μCi) thereto. The test compounds were dissolved in ethanol to give the reaction mixture containing 2% ethanol as a final concentration. Only ethanol was added to the reaction mixture as a control group.
To the reaction mixture were added 2.5 ml of a mixture of chloroform and methanol (2/1 by volume) and 0.3 ml of 40 mM citric acid to stop the reaction. The mixture was vortexed and an organic solvent layer was evaporated to dryness under nitrogen gas. After dissolving the dried organic layer in a fixed amount of the mixture of chloroform and methanol (2/1 by volume), it was spotted on a silica gel plate (Kiesel gel 60F254, E. Merck) and products were separated using a developer (the organic solvent layer of ethyl acetate/water/2,2,4-trimethylpentane/acetic acid=11/10/5/2 by volume). After the radioactive position of the product was determined by means of a radioautography, an area equivalent to that of 5-hydroxyeicosatetraenoic acid (hereinafter referred to as "5-HETE") was scraped off, and then its radioactivity was measured with a liquid scintillation counter. With regarding the amount of the generated 5-HETE as the 5-lipoxygenase inhibiting activity, the inhibition rate (%) in comparison with the control group was calculated according to the following equation. [formula]

T1 sequence (P00533 25-1210, one chain of several): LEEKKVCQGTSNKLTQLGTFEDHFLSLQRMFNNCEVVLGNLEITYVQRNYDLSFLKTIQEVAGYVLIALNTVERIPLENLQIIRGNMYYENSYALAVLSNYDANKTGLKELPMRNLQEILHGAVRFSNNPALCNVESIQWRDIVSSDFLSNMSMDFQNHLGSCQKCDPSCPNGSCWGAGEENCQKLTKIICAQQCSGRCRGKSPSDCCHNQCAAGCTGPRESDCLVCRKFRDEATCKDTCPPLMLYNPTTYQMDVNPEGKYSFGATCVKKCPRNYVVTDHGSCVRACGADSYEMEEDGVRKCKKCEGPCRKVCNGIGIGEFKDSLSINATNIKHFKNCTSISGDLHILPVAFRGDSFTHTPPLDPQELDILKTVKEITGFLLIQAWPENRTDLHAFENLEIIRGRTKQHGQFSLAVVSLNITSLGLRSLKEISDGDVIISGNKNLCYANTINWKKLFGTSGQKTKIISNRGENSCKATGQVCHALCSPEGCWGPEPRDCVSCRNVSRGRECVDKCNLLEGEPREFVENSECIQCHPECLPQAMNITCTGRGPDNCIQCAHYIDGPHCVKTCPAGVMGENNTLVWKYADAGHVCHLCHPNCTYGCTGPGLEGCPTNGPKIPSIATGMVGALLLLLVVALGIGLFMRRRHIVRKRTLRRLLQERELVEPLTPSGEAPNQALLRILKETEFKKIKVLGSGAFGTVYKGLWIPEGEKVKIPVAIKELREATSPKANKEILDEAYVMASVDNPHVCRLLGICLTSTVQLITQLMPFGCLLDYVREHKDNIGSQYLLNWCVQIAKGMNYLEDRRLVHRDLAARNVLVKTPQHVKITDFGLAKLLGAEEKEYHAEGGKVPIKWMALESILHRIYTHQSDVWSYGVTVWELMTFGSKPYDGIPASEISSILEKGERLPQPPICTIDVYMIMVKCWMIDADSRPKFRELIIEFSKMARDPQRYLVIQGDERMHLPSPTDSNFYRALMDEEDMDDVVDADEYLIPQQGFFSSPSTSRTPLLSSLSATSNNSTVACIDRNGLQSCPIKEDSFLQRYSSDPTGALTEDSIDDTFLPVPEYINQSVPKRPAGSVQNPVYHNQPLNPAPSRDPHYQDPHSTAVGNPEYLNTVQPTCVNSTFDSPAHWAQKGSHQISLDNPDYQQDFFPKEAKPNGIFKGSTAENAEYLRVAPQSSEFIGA

| Compound | responders at 100 mg/kg [2] | inhibition in vivo at 100 mg/kg [1] | inhibition at 10 µM [6] | inhibition at 10 µM [5] | also measured |
| --- | --- | --- | --- | --- | --- |
| COc1ccc(/C=C/C(=O)Nc2ccccc2C(=O)O)cc1OC [tranilast, reference compound] | 0% |  |  |  | inhibition in vivo at 300 mg/kg ([1]; 300 mg/kg, 30 minutes before antigen, positive control): 40% |
| CC(C)c1cc(C=C2SC(Nc3ccccc3)=NC2=O)cc(C(C)C)c1O [Compound 32] |  | 21% |  |  | MIC [3]: ≤ 6 µg/mL; inhibition in vivo at 2 mg/kg ([4]; 2 mg/kg): 23%; inhibition at 1 µM [5]: 74% |
| CC(C)c1cc(C=C2SC(NCCc3ccccc3)=NC2=O)cc(C(C)C)c1O [Compound 34] |  | 48% |  |  | MIC [3]: ≤ 6 µg/mL; inhibition at 1 µM [5]: 63% |
| CC(C)c1cc(C=C2SC(NCc3ccc(Cl)cc3)=NC2=O)cc(C(C)C)c1O [Compound 36] | 25% |  | 84% | 59% |  |
| Cn1c(=O)c2[nH]cnc2n(C)c1=O [theophylline, reference compound] |  |  |  |  | inhibition in vivo at 1 mg/kg ([4]; 1 mg/kg): 31%; responders at 30 mg/kg ([2]; 30 mg/kg): 50% |
| COc1ccc(CNC2=NC(=O)C(=Cc3cc(C(C)C)c(O)c(C(C)C)c3)S2)cc1 [Compound 38] | 25% |  | 88% | 85% |  |
| N#CC(=Cc1cc(O)c(O)c(Cc2ccccc2)c1)C(N)=O [Compound 23] |  | 29% | 85% | 60% |  |
